Tests used:
[1] = system: light-evoked excitatory postsynaptic currents (EPSCs) in lamina I-II outer neurons; assay: Spinal cord slice whole-cell recording of light-evoked EPSCs from ChR2-expressing TRPV1 nociceptors; format: cell-based, mouse
Source text: FIG. 4. Opioid-induced spinal long-term potentiation (LTP) is initiated by presynaptic MOR in nociceptors. (a,b) MOR cKO mice crossed with a mouse line expressing Channel-rhodopsin2 (ChR2-eYFP) in a Cre-dependent manner produces expression of ChR2-eYFP in Trpv1^Cre+DRG nociceptor cell bodies and central terminals in the spinal cord dorsal horn. Scale bars=50 m, throughout. (c,d) Blue light-evoked (473 nm, 1.0 mW/cm^2, 0.2 ms, 0.05 Hz) excitatory postsynaptic currents (EPSCs) recorded in laminae I and II outer spinal neurons in slices from MOR cKO and littermate controls. Numbered inset traces correspond to individual EPSCs before, during, and after wash-out of bath applied DAMGO (500 nM; 5 min duration). Scale bar=100 pA, 10 ms. (c) DAMGO-induced depression of EPSC amplitude and rebound LTP after washout (Control+LTP; n=8/15 neurons) in control slices. […] Error bars are mean±SEM.
Adult mice (6-8 weeks old) were anesthetized with isoflurane, decapitated, and the vertebral column was rapidly removed and placed in oxygenated ice-cold dissection solution (in mM: 95 NaCl, 2.5 KCl, 1.25 NaH2PO4, 26 NaHCO3, 50 sucrose, 25 glucose, 6 MgCl2, 1.5 CaCl2, and 1 kynurenic acid, pH 7.4, 320 mOsm). The lumbar spinal cord was isolated, embedded in a 3% agarose block, and transverse slices (400 Lm thick) were made using a vibrating microtome (Leica V T 1200S). Slices were incubated in oxygenated recovery solution (in mM: 125 NaCl, 2.5 KCl, 1.25 NaH2PO4, 26 NaHCO3, 25 glucose, 6 MgCl2, and 1.5 CaCl2, pH 7.4, 320 mOsm) at 35° C. for 1 hour before recording. Patch-clamp recording in whole-cell configuration was performed at 32° C. on lamina I or lamina II outer zone neurons visualized with an Olympus microscope (BX51WI age-MTI). Slices were perfused at ˜2 ml/min with recording solution (in mM: 125 NaCl, 2.5 KCl, 1.25 NaH2PO4, 26 NaHCO3, 25 glucose, 1 MgCl2, 2 CaCl2, pH 7.4, 320 mOsm). Recordings were performed in voltage-clamp mode at a holding potential of −70 mV. Thick-walled borosilicate pipettes, having a resistance of 3-6 MOhm, were filled with internal solution (in mM: 120 potassium gluconate, 20 KCl, 2 MgCl2, 5 MgATP, 0.5 NaGTP, 20 HEPES, 0.5 EGTA, PH 7.25 with KOH, ˜300 mOsm). All data were acquired using a Multiclamp 700B amplifier and pClamp10 software (Molecular Devices). Sampling rate was 10 kHz and data were filtered at 2 kHz. Analysis of eEPSC peak amplitudes was done with Clampfit software (pClamp10, Molecular Devices). Graphs and statistical analysis were generated with Igor Pro (Wave Metrics).
To isolate the TRPV1 nociceptor mediated EPSCs, we crossed the TRPV1-Cre mice with Ai32 mice (Rosa-CAG-LSL-ChR2(H134R)-EYFP-WPRE) (Bardoni et al., 2014) to limit the channelrhodopsin 2 expression specifically to TRPV1 primary afferents. […]

wild-type C57Bl/6J mice = assay: Morphine and MNB combination in wild-type mice: nociceptive reflexes, affective-motivational behaviors, tolerance and OIH; format: in vivo, mouse
Method: (a) Temporal raster plot of nociception-induced sensory-reflexive and affective-motivational behaviors in an inescapable noxious environment (enclosed 52.5° C. hotplate). […] MNB doses 0.0-1.0 mg/kg, n=10; MNB 10 mg/kg, n=7 for reflexive tests and n=5 for affective-motivational tests. Best-fit lines were generated following non-linear regression analysis based on the % MPE for each mouse. One-way ANOVA+Bonferroni (left panels of b,d,f-k). ★ P<0.05. Error bars are mean±SEM. Overlaid points are individual animal scores. PID=post-injury day.
(b) Visual depiction of reflexive paw flinching behavior. (c) Latencies to the first paw flinch. (d) Number of paw flinches (see FIG. 17). (e) Visual depiction of hindpaw guarding behavior. (f) Latency to the first onset of hindpaw guarding. (g) Total duration of time spent engaged in hindpaw guarding. (h) Visual depiction of hindpaw attending. (i) Latency to the first onset of hindpaw attending. (j) Total duration of time spent engaging in hindpaw attending. (k) Visual depiction of escape jumping behavior. (1) Latency to the first jump. […] (m) Number of escape jumps. […] Error bars are±SEM.
Repeated Measures 2-way ANOVA+Bonferonni. ★ P<0.05. Error bars are mean±SEM.
(§1) To evaluate mechanical reflexive hypersensitivity (Weibel et al., 2013), we used a logarithmically increasing set of 8 von Frey filaments (Stoelting), ranging in gram force from 0.007 to 6.0 g. These were applied perpendicular to the plantar hindpaw with sufficient force to cause a slight bending of the filament. A positive response was characterized as a rapid withdrawal of the paw away from the stimulus filament within 4 s. Using the up-down statistical method (Solway et al., 2011), the 50% withdrawal mechanical threshold scores were calculated for each mouse and then averaged across the experimental groups.
(§2) To evaluate affective-motivational responses to an acute, focal thermal stimulus (Madisen et al., 2012), we applied either a single, unilateral 50 μl drop of 55° C. water or acetone (evaporative cooling) to the left hindpaw, and the duration of attending behavior was collected for up to 30 seconds after the stimulation. Only one stimulation per thermal drop was applied on a given testing session, in order to prevent behavioral sensitization that can result from multiple noxious stimulations and then averaging those responses.
To evaluate affective-motivational responses to a sustained, inescapable noxious thermal stimulus, mice were placed on a 52.5° C. hot plate for 45 seconds. A high-speed camera (on the side, level with the hot plate floor) was used to capture the movement, speed, velocity, and detailed reflexive and affective-motivational behaviors of the mice, as described above.
As opposed to the standard hot-plate test, all behaviors such as reflexive paw flinching (rapid flicking of the limb), paw attending (directed licking of the limb), paw guarding (intentional lift protection of the limb), and escape jumping for the duration of the trial were scored. This allowed the analysis of the high-speed videos, blinded to plate temperature or treatment, for the total time spent engaging in affective-motivational behaviors and the number of nociceptive reflexives, as opposed to the traditional metric of merely determining the latency to the first reflexive response.

laxation responses = details: subcutaneous MNB 5, 12.5 or 20 mg; clinical; cited from earlier work
[2] = system: MOR cKO mice and littermate controls; assay: Acute morphine antinociception in MOR cKO mice and littermate controls (von Frey, tail immersion, hotplate); format: in vivo, mouse
Source text: as §1

[3] = system: mice with chronic constriction injury (CCI) of the sciatic nerve; details: CCI + morphine alone 10 mg/kg
Source text: (§3) Error bars are mean±SEM. Overlaid points are individual animal scores. PID=post-injury day.
as §1, §2

[4] = system: mice with tibia fracture and bone pinning; details: morphine alone 10 mg/kg
Source text: as §3, §3, §1, §2

[5] = system: MOR cKO mice and littermate controls; assay: 10 day chronic morphine schedule: antinociceptive tolerance and OIH in MOR cKO mice and littermate controls; format: in vivo, mouse; details: 10 mg/kg subcutaneous once daily for 10 days
Method: Nociceptive behavior (pre-morphine BL timepoints only): von Frey: F1, 30=9.863, P=0.004; tail immersion: F1, 30=0.7311; hotplate: F1, 30=[…]. Antinociception (post-morphine+30 min timepoints only): von Frey: F1, 30=4.812, P=0.0367; tail immersion: F1, 30=19.74, P<0.0001; hotplate: F1, 30=17.23, P=0.0004. […] Control, n=19; MOR cKO, n=13. BL=baseline. […] Repeated Measures Two-way ANOVA+Bonferroni (a,d,g and left panels of b,c,e,f,h,i). ★ P<0.05. Error bars are mean±SEM. Overlaid points are individual animal scores. BL=baseline.
(§4) The tail-immersion test was used to evaluate thermal reflexive hypersensitivity (Woolf, 1984) with the temperature of the water bath being set to 48-52.5° C. The mouse was gently restrained and 2 cm of the tip of the tail was submerged in the water bath, and the latency (seconds) to reflexively withdraw the tail from the water was recorded as a positive nociceptive reflex response. A maximal cut-off of 45-60 s was set to prevent tissue damage.
The hotplate test was used to evaluate thermal-induced affective-motivational responses (Woolf, 1984) with the plate temperature being set to 50-52.5° C.). Mice were place on the plate and the latency (seconds) to the first appearance of an attending response (lick and/or bite at one or both hindpaws) was recorded as a positive affective-motivational response. A maximal cut-off of 45 s was set to prevent tissue damage.
Next the development of morphine antinociceptive tolerance and OIH in MOR cKO mice was evaluated. […] We measured thermal and mechanical nociceptive thresholds, and affective-motivational responses to noxious thermal stimuli prior to, and 30 min after, each daily injection, to evaluate OIH and tolerance, respectively (FIG. 3, panels a, d, g).

[6] = system: wild-type control and global MOR KO mice; assay: Chronic morphine analgesic tolerance and OIH in wild-type control and global MOR KO mice (thermal tail immersion); format: in vivo, mouse
Method: These treatments were given for 6 days (Days 2-7). […] (b) Untransformed, raw sensory threshold scores for same data presented in FIG. 1, panels a and b. n=6 for all groups. ★ P<0.05. Error bars are±SEM.
as §4

[7] = subcutaneous morphine 10 mg/kg, acute

Structure (SMILES): C[C@@H](NC(=O)[C@@H](N)Cc1ccc(O)cc1)C(=O)NCC(=O)N(C)[C@@H](Cc1ccccc1)C(=O)NCCO [DAMGO, [D-Ala^2, N-MePhe^4, Gly-ol^5]-enkephalin]
- EPSC amplitude during DAMGO ([1]; MOR cKO slices, 9 out of 9 neurons, 500 nM): 98±8.12 % of control
- EPSC amplitude after DAMGO-washout ([1]; MOR cKO slices, 9 out of 9 neurons, after washout of 500 nM): 96.2±11.9%
- EPSC amplitude after washout (LTP) ([1]; control slices, 8 out of 15 neurons, thirty minutes after washout of 500 nM): 142.2±6.1 % of control
- depression of light-evoked EPSCs ([1]; control slices, all 15 recorded neurons, 500 nM bath application, at 5 min of application): 52±10.5 % inhibition

Structure (SMILES): C[N@+]1(CC2CC2)CC[C@]23c4c5ccc(O)c4O[C@H]2C(=O)CC[C@@]3(O)[C@H]1C5 [MNB, methylnaltrexone bromide]
- dose-response of MNB effect on morphine tolerance, latency to nociceptive reflexes (paw flinch) (wild-type C57Bl/6J mice; 45 s 52.5° C. hot plate, morphine 10 mg/kg + MNB 0.1-10.0 mg/kg): bell-shaped dose-response curve
- effect of MNB on morphine antinociceptive effects (wild-type C57Bl/6J mice; MNB 0.1-10.0 mg/kg combined with morphine): did not alter morphine antinociceptive effects
- onset of morphine antinociceptive tolerance and OIH, 10-day treatment (wild-type C57Bl/6J mice; MNB 1 or 10 mg/kg + morphine for 10 days, von Frey and 52.5° C. hotplate): prevents the onset of morphine antinociceptive tolerance and OIH
- onset of tolerance and OIH (wild-type C57Bl/6J mice; morphine 10 mg/kg + MNB 0.1-10.0 mg/kg once daily for 7 days): dose-dependently prevents the onset of morphine antinociceptive tolerance and OIH
- laxation responses, percentage of responders (laxation responses): higher percentage of responders after 5 or 12.5 mg subcutaneous MNB compared to a 20 mg dose

Structure (SMILES): CN1CC[C@]23c4c5ccc(O)c4O[C@H]2[C@@H](O)C=C[C@H]3[C@H]1C5.O=S(=O)(O)O [morphine, Morphine sulfate]
- reflexive or affective-motivational antinociception ([2]; MOR cKO mice, acute intrathecal 1 μg): did not produce significant reflexive or affective-motivational antinociception
- reflexive and affective-motivational antinociception ([2]; MOR cKO mice, subcutaneous 10 mg/kg): maximal reflexive and affective-motivational antinociception
- antinociception ([2]; control mice, acute intrathecal 1 μg): robust antinociception
- OIH [3]: No indications of OIH
- reduction of nociceptive or affective-motivational orthotrauma pain after chronic treatment ([4]; after 7 days of chronic treatment): no longer effective
- antinociception, acute ([4]; first administration): acutely produced antinociception
- antinociceptive tolerance and OIH, reflexive and affective-motivational measures (wild-type C57Bl/6J mice; morphine alone 10 mg/kg once daily for 7 days, Day 7 compared to Day 1): robust antinociceptive tolerance and OIH
- affective-motivational behaviors (wild-type C57Bl/6J mice; [7]): effective at alleviating affective-motivational behaviors
- nociceptive reflexes (wild-type C57Bl/6J mice; [7]): significantly reduce nociceptive reflexes
- OIH for thermal and mechanical stimuli ([5]; MOR cKO mice vs controls): significantly less OIH than controls
- morphine antinociception over chronic treatment (tolerance) ([5]; MOR cKO mice): retained near full antinociceptive efficacy
- morphine antinociception over chronic treatment (tolerance) ([5]; littermate controls): progressively diminished
- OIH ([6]; global MOR KO mice, twice daily escalating 10 to 40 mg/kg schedule): no OIH
- analgesic tolerance and OIH ([6]; wild-type mice, chronic morphine, fixed once daily 10 mg/kg or twice daily escalating 10 to 40 mg/kg, subcutaneous): significant tolerance and OIH

Source: patent US20180214442A1, “METHODS FOR ATTENUATING OR PREVENTING MU(μ)-OPIOID RECEPTOR MEDIATED TOLERANCE AND OPIOID-INDUCED […]” (The Board of Trustees of the Leland Stanford Junior …, priority 2017, published 2018)
